# Data from patent US8471005B2 (Cephalon, Inc., priority 2008, dated 2013).
# Read-outs that look alike come from different tables or passages of the source.
# Assays:
# JAK2 = target: T1, JAK2 (Homo sapiens, UniProt O60674); experiment: Recombinant Human JAK2 Kinase Assay (TRF); assay type: biochemical; settings: read-out: JAK2 Potency
# T1 construct: host or cells: baculovirus expression system
# Summary of the method: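 Baculovirus-expressed JAK2 (15 ng/ml) phosphorylated a biotinylated 15-mer peptide captured on Neutravidin-coated plates, in 20 mM HEPES pH 7.2 with 0.2 μM ATP, 1 mM MnCl2, 0.1% BSA and 2.5% DMSO. Reaction ran 20 min at room temperature; phosphopeptide was detected by time-resolved fluorescence with Eu-N1-labelled PY100 antibody.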
# ALK = target: T2, ALK (Homo sapiens, UniProt Q9UM73); experiment: ALK Kinase Assay (ELISA/TRF, PLC-γ substrate); assay type: biochemical; settings: read-out: ALK Potency
# T2 construct: host or cells: baculovirus expression system
# T2 sequence (Q9UM73 19-1620): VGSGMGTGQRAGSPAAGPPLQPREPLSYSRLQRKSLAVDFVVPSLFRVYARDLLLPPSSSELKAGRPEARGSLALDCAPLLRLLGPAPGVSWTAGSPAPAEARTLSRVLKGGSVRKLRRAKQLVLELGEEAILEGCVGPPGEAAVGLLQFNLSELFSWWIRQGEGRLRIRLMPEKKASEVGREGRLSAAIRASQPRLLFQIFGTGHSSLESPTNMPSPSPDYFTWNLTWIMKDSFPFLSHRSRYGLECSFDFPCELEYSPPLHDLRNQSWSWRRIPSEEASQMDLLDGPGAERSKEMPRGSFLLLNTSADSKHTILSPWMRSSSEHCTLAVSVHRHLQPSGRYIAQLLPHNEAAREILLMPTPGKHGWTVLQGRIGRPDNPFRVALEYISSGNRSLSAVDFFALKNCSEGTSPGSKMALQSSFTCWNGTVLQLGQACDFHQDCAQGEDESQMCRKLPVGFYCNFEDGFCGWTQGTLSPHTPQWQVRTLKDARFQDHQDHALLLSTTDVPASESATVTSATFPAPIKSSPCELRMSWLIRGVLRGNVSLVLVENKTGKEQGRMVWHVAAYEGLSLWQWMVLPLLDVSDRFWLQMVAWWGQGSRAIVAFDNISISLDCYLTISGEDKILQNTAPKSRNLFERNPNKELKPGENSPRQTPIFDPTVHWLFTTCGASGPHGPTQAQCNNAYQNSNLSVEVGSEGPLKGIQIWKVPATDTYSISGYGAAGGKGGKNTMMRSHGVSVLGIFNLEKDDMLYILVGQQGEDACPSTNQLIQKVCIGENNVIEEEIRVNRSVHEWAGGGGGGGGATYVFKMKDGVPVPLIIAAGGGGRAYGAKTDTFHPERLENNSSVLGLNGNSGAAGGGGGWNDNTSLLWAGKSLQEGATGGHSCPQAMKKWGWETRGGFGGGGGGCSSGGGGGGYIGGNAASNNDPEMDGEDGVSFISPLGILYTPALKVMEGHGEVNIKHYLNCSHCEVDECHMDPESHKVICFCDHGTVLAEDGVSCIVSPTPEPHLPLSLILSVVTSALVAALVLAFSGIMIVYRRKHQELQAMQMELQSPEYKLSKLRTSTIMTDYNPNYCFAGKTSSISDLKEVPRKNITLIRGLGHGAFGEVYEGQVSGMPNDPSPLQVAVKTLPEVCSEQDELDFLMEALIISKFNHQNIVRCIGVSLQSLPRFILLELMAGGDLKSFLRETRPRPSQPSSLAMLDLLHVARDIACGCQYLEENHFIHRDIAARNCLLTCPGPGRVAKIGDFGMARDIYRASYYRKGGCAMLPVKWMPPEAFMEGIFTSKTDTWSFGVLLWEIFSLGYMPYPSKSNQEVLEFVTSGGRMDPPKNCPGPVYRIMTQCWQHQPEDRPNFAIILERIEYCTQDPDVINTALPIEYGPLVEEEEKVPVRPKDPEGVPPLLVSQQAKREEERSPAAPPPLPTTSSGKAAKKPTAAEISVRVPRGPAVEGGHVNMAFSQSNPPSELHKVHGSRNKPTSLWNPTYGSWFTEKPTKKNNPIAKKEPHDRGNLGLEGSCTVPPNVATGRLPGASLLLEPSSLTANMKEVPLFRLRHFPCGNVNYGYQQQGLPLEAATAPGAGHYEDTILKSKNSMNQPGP
# Summary of the method: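 Read-out is time-resolved fluorescence from a Eu-N1-labeled PT66 antibody that binds phosphorylated PLC-γ, the substrate coated at 10 μg/mL in TBS. ALK at 30 ng/ml starts the reaction, which runs 15 minutes at 37° C.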
# [1] = JAK2 kinase inhibition, 0.2 μM ATP
# [2] = ALK kinase inhibition, 1 μM ATP
# T1 sequence (O60674 whole entry): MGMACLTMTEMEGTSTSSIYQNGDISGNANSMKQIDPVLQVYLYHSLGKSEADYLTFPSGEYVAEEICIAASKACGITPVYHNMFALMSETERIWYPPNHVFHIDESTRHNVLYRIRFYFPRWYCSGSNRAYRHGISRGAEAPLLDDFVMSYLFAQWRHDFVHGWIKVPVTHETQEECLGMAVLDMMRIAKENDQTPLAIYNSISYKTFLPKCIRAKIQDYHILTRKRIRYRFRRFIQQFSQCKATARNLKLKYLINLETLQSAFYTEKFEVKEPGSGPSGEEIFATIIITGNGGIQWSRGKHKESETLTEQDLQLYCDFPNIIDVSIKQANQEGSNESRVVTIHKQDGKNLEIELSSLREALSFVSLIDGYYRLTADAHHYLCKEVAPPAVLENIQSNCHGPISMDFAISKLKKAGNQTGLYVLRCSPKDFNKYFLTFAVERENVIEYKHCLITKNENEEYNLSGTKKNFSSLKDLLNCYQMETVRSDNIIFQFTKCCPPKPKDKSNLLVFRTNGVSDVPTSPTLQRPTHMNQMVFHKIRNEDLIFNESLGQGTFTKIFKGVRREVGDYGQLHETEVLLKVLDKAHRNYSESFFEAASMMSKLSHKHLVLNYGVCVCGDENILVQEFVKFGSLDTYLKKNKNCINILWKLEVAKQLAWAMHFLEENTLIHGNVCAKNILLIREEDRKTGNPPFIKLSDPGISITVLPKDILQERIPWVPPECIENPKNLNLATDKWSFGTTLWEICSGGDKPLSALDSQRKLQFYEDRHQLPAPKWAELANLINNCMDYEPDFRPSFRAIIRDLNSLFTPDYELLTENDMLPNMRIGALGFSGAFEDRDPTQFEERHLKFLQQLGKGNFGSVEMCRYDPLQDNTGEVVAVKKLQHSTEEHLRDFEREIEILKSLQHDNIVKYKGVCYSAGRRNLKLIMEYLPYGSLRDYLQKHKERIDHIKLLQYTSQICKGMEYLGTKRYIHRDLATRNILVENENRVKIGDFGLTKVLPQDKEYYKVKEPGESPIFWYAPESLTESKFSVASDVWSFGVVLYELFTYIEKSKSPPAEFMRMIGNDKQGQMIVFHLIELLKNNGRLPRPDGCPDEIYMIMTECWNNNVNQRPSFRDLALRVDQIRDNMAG
IC50 (JAK2; JAK2 Kinase Inhibition) [nM],IC50 (ALK; ALK Kinase Inhibition) [nM],IC50 (JAK2; [1]) [nM],IC50 (ALK; [2]) [nM],Compound
< 100,< 100,–,–,"COc1ccc(Cl)cc1-c1ccc2cnc(Nc3cccc(N4CCN(CCO)CC4)c3)nn12 [Example 180, 2-(4-{3-[7-(5-Chloro-2-methoxy-phenyl)-pyrrolo[2,1-f][1,2,4]triazin-2-ylamino]-phenyl}-piperazin-1-yl)-ethanol]"
< 100,100 to 1000,–,–,"CN1CCN(c2ccc(Nc3ncc4ccc(-c5cccc(N(C)S(C)(=O)=O)c5)n4n3)cc2)CC1 [Example 419, N-Methyl-N-(3-{2-[4-(4-methyl-piperazin-1-yl)-phenylamino]-pyrrolo[2,1-f][1,2,4]triazin-7-yl}-phenyl)-methanesulfonamide]"
100 to 1000,< 100,–,–,"COc1cc(N2CCC[C@@H](C(=O)N3CCN(C)CC3)C2)ccc1Nc1ncc2ccc(-c3ccccc3OC)n2n1 [Example 463, ((R)-1-{3-Methoxy-4-[7-(2-methoxy-phenyl)-pyrrolo[2,1-f][1,2,4]triazin-2-ylamino]-phenyl}-piperidin-3-yl)-(4-methyl-piperazin-1-yl)-methanone]"
< 100,100 to 1000,–,–,"COc1ccc(Cl)cc1-c1ccc2cnc(Nc3cc(OC)c(OC)c(OC)c3)nn12 [Example 141, [7-(5-Chloro-2-methoxy-phenyl)-pyrrolo[2,1-f][1,2,4]triazin-2-yl]-(3,4,5-trimethoxy-phenyl)-amine]"
–,–,< 100,> 10000,"COc1ccc(-c2ccc3cnc(Nc4ccc(Cl)c(CN5CCOCC5)c4)nn23)cn1 [Example 973, (4-Chloro-3-morpholin-4-ylmethyl-phenyl)-[7-(6-methoxy-pyridin-3-yl)-pyrrolo[2,1-f][1,2,4]triazin-2-yl]-amine]"
< 100,100 to 1000,–,–,"CS(=O)(=O)c1ccc(-c2ccc3cnc(Nc4ccc(C5CCN(CC(N)=O)CC5)cc4)nn23)cc1 [Example 1435, 2-(4-{4-[7-(4-Methanesulfonyl-phenyl)-pyrrolo[2,1-f][1,2,4]triazin-2-ylamino]-phenyl}-piperidin-1-yl)-acetamide]"
< 100,1000 to 10000,–,–,"CN1CCN(c2ccc(Nc3ncc4ccc(-c5ccccc5S(C)(=O)=O)n4n3)cc2)CC1 [Example 406, [7-(2-Methanesulfonyl-phenyl)-pyrrolo[2,1-f][1,2,4]triazin-2-yl]-[4-(4-methyl-piperazin-1-yl)-phenyl]-amine]"
–,–,1000 to 10000,< 100,"COc1cc(Cn2ccnc2C)ccc1Nc1ncc2ccc(-c3ccccc3N(C)S(C)(=O)=O)n2n1 [Example 505, N-(2-{2-[2-Methoxy-4-(2-methyl-imidazol-1-ylmethyl)-phenylamino]-pyrrolo[2,1-f][1,2,4]triazin-7-yl}-phenyl)-N-methyl-methanesulfonamide]"
–,–,< 100,< 100,"NC(=O)CN1CC(c2ccc(Nc3ncc4ccc(-c5cccc6c5OCC6)n4n3)cc2)C1 [Example 587, 2-(3-{4-[7-(2,3-Dihydro-benzofuran-7-yl)-pyrrolo[2,1-f][1,2,4]triazin-2-ylamino]-phenyl}-azetidin-1-yl)-acetamide]"
–,–,100 to 1000,< 100,"CNC(=O)CN1CCC(c2ccc(Nc3ncc4ccc(-c5ccccc5N(C)S(C)(=O)=O)n4n3)c(OC)c2)CC1 [Example 870, 2-[4-(4-{7-[2-(Methanesulfonyl-methyl-amino)-phenyl]-pyrrolo[2,1-f][1,2,4]triazin-2-ylamino}-3-methoxy-phenyl)-piperidin-1-yl]-N-methyl-acetamide]"
1000 to 10000,1000 to 10000,–,–,"c1ccc(-c2ccc3cnc(NCc4cccnc4)nn23)cc1 [Example 12, (7-Phenyl-pyrrolo[2,1-f][1,2,4]triazin-2-yl)-pyridin-3-ylmethyl-amine]"
–,–,< 100,100 to 1000,"CCOC(=O)c1ccccc1-c1ccc2cnc(Nc3ccc(N4CCN(C)CC4)cc3)nn12 [Example 1146, 2-{2-[4-(4-Methyl-piperazin-1-yl)-phenylamino]-pyrrolo[2,1-f][1,2,4]triazin-7-yl}-benzoic acid ethyl ester]"
–,–,< 100,1000 to 10000,COc1ccc(-c2ccc3cnc(Nc4ccc(N5CCOCC5)nc4)nn23)cn1 [Example 1106]
–,–,< 100,1000 to 10000,"CN1CCN(c2ccc(Nc3ncc4ccc(-c5cncc(CNCCS(C)(=O)=O)c5)n4n3)cc2)CC1 [Example 1198, (7-{5-[(2-Methanesulfonyl-ethylamino)-methyl]-pyridin-3-yl}-pyrrolo[2,1-f][1,2,4]triazin-2-yl)-[4-(4-methyl-piperazin-1-yl)-phenyl]-amine]"
–,–,> 10000,> 10000,"CN1CCN(Cc2cccc(Nc3ncc4ccc(-c5cccc(S(C)(=O)=O)c5)n4n3)n2)CC1 [Example 1124, [7-(3-Methanesulfonyl-phenyl)-pyrrolo[2,1-f][1,2,4]triazin-2-yl]-[6-(4-methyl-piperazin-1-ylmethyl)-pyridin-2-yl]-amine]"
–,–,< 100,1000 to 10000,"CON=C1CCC(c2ccc(Nc3ncc4ccc(-c5cccc(S(=O)(=O)C(C)C)c5)n4n3)cc2)CC1 (stereo not shown) [Example 576, 4-(4-{7-[3-(Propane-2-sulfonyl)-phenyl]-pyrrolo[2,1-f][1,2,4]triazin-2-ylamino}-phenyl)-cyclohexanone O-methyl-oxime]"
–,–,< 100,< 100,"CN1CCC(C(=O)N2CCC(c3ccc(Nc4ncc5ccc(-c6ccccc6N(C)S(C)(=O)=O)n5n4)cc3)CC2)CC1 [Example 502, N-Methyl-N-[2-(2-{4-[1-(1-methyl-piperidine-4-carbonyl)-piperidin-4-yl]-phenylamino}-pyrrolo[2,1-f][1,2,4]triazin-7-yl)-phenyl]-methanesulfonamide]"
–,–,< 100,1000 to 10000,"O=S(=O)(c1cccc(-c2ccc3cnc(Nc4ccc5nc(CO)[nH]c5c4)nn23)c1)N1CCCC1 [Example 1070, (6-{7-[3-(Pyrrolidine-1-sulfonyl)-phenyl]-pyrrolo[2,1-f][1,2,4]triazin-2-ylamino}-1H-benzoimidazol-2-yl)-methanol]"
–,–,< 100,1000 to 10000,"CC(C)(C)NS(=O)(=O)c1cccc(-c2ccc3cnc(Nc4ccc5nc(C(C)(C)C)[nH]c5c4)nn23)c1 [Example 1330, N-tert-Butyl-3-[2-(2-tert-butyl-3H-benzimidazol-5-ylamino)-pyrrolo[2,1-f][1,2,4]triazin-7-yl]-benzenesulfonamide]"
–,–,< 100,100 to 1000,"COc1ccc(-c2ccc3cnc(Nc4cccc(NC(=O)[C@@H](C)OC)c4)nn23)cn1 [Example 900, (R)-2-Methoxy-N-{3-[7-(6-methoxy-pyridin-3-yl)-pyrrolo[2,1-f][1,2,4]triazin-2-ylamino]-phenyl}-propionamide]"
–,–,< 100,< 100,"COc1cc2c(cc1Nc1ncc3ccc(-c4ccccc4OC)n3n1)CN(C)C2 [Example 816, (6-Methoxy-2-methyl-2,3-dihydro-1H-isoindol-5-yl)-[7-(2-methoxy-phenyl)-pyrrolo[2,1-f][1,2,4]triazin-2-yl]-amine]"
1000 to 10000,1000 to 10000,–,–,"c1cncc(-c2ccc3cnc(-n4cnc5cnccc54)nn23)c1 [Example 325, 1-(7-Pyridin-3-yl-pyrrolo[2,1-f][1,2,4]triazin-2-yl)-1H-imidazo[4,5-c]pyridine]"
< 100,< 100,–,–,"COc1cc(N2CCCC(N3CCN(C)CC3)C2)ccc1Nc1ncc2ccc(-c3ccccc3OC)n2n1 (single isomer, unassigned) [Example 1441, {2-Methoxy-4-[3-(4-methyl-piperazin-1-yl)-piperidin-1-yl]-phenyl}-[7-(2-methoxy-phenyl)-pyrrolo[2,1-f][1,2,4]triazin-2-yl]-amine]"
–,–,100 to 1000,< 100,"COc1cc([C@H]2CC[C@H](N3CCOCC3)CC2)ccc1Nc1ncc2ccc(-c3ccccc3N(C)S(C)(=O)=O)n2n1 [Example 1248, N-{2-[2-({2-methoxy-4-[trans-4-(morpholin-4-yl)cyclohexyl]phenyl}amino)pyrrolo[2,1-f][1,2,4]triazin-7-yl]phenyl}-N-methylmethanesulfonamide]"
–,–,1000 to 10000,100 to 1000,"COc1cc(C2CCNCC2)ccc1Nc1ncc2ccc(N3CC(c4ccccc4)CC3=O)n2n1 (stereo not shown) [Example 719, 1-[2-(2-Methoxy-4-piperidin-4-yl-phenylamino)-pyrrolo[2,1-f][1,2,4]triazin-7-yl]-4-phenyl-pyrrolidin-2-one]"
< 100,1000 to 10000,–,–,"CN1C(=O)Cc2cc(Nc3ncc4ccc(-c5cccnc5)n4n3)ccc21 [Example 374, 1-Methyl-5-(7-pyridin-3-yl-pyrrolo[2,1-f][1,2,4]triazin-2-ylamino)-1,3-dihydro-indol-2-one]"
–,–,< 100,< 100,"COc1ccccc1-c1ccc2cnc(Nc3ccc4c(c3)CS(=O)(=O)C4)nn12 [Example 659, (2,2-Dioxo-2,3-dihydro-1H-2$1(6)-benzo[c]thiophen-5-yl)-[7-(2-methoxy-phenyl)-pyrrolo[2,1-f][1,2,4]triazin-2-yl]-amine]"
–,–,< 100,1000 to 10000,"CC(=O)Nc1cc(Nc2ncc3ccc(-c4cnn(C)c4)n3n2)ccc1Cl [Example 962, N-{2-Chloro-5-[7-(1-methyl-1H-pyrazol-4-yl)pyrrolo[2,1f][1,2,4]triazin-2-ylamino]-phenyl}-acetamide]"
–,–,< 100,1000 to 10000,"CS(=O)(=O)Nc1cccc(-c2ccc3cnc(Nc4ccn(CCN5CCOCC5)n4)nn23)c1 [Example 1185, N-(3-{2-[1-(2-Morpholin-4-yl-ethyl)-1H-pyrazol-3-ylamino]-pyrrolo[2,1-f][1,2,4]triazin-7-yl}-phenyl)-methanesulfonamide]"
